Experimental data: patent publication US20070219237A1, “Chromane Derivatives” (Pfizer Inc, priority 2006, published 2007)

Test system: not given
Experiment: not given
Settings: not given

| melting point [°C] | Structure (SMILES) |
| --- | --- |
| 186 | Cc1nc2c(N[C@H]3CCOc4cc(F)cc(F)c43)cc(C(=O)N(C)C)cn2c1CO (single isomer, unassigned) [Example 3-3] |

Target: T1, porcine gastric H^+/K^+-ATPase (Sus scrofa, UniProt P19156)
T1 construct: prepared from mucous membrane in fresh porcine stomachs by homogenization; from tissue; host or cells: gastric vesicles from mucous membrane of fresh porcine stomachs
Experiment: Ion-tight porcine gastric H+/K+-ATPase inhibition
Type: biochemical
Settings: ion-tight gastric vesicles, 150 mM KCl, 15 μM valinomycin, pH 7.4, 37° C., 30 minutes; read-out: IC50 of the inhibitory activity
Protocol: The porcine gastric vesicles for Porcine gastric H^+/K^+-ATPase inhibition assays were prepared from mucous membrane in fresh porcine stomachs by homogenization with a tight-fitted polytetrafluoroethylene (Teflone®) homogenizer in 0.25 M sucrose at 4° C. The crude pellet was removed with centrifugation at 20,000 g for 30 min. Then supernatant was centrifuged at 100,000 g for 30 min. The resulting pellet was re-suspended in 0.25 M sucrose, and then subjected to density gradient centrifugation at 132,000 g for 90 min. The gastric vesicles were collected from interface on 0.25 M sucrose layer containing 7% FicollTM PM400(Amersham Biosciences). This procedure was performed in a cold room.
Ion-tight porcine gastric H^+/K^+-ATPase inhibition was measured according to the modified method described in Biochemical Pharmacology, 1988, 37, 2231-2236.
The isolated vesicles were kept in deep-freezer until use. For enzyme assay, vesicles were diluted with 3 mM MgSO4 containing 5 mM Tris (pH 7.4 at 37° C.).
Enzyme reaction was performed incubating 150 mM KCl, 3 mM Na2ATP, 3 mM MgSO4, 15 μM valinomycin and 3.0 μg of vesicles for 30 minutes at 37° C. in a final 60 μl of reaction mixture (5mM Tris, pH 7.4) with or without the test compound. Enzyme reaction was stopped by adding 10% SDS. Released inorganic phosphate from ATP was detected by incubating with mixture of 1 part of 35 mM ammonium molybdate tetrahydrate in 15 mM Zinc acetate hydrate and 4 parts of 10% ascorbic acid (pH 5.0), resulting in phosphomolybdate, which has optical density at 750 nm.

T1 sequence (P19156 2-1034 limits assumed): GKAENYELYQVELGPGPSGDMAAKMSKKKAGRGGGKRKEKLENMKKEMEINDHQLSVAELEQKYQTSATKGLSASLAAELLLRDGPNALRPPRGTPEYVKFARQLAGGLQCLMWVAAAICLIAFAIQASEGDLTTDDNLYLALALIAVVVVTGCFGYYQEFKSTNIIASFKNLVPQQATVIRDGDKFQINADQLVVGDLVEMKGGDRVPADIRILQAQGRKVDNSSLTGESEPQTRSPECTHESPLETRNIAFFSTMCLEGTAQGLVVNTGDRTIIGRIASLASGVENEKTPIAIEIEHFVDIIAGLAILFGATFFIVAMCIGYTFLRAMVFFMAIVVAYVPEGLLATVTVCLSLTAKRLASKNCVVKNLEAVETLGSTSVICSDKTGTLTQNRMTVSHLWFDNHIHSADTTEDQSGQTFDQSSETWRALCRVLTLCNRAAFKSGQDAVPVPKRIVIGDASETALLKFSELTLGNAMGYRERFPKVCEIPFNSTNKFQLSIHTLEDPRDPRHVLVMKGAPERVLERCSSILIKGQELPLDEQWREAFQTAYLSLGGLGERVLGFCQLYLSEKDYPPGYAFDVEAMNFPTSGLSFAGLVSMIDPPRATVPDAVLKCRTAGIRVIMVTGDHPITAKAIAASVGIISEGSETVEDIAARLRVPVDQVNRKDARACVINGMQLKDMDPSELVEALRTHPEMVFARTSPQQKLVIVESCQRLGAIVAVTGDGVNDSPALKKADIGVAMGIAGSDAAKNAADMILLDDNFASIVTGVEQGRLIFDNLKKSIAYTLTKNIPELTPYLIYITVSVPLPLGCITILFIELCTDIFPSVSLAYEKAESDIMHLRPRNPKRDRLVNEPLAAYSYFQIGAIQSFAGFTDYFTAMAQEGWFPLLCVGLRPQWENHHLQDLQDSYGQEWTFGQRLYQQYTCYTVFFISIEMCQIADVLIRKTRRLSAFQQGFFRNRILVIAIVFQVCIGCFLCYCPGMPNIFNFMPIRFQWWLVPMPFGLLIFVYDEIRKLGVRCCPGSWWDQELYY
T1 sequence (P18434 whole entry partner): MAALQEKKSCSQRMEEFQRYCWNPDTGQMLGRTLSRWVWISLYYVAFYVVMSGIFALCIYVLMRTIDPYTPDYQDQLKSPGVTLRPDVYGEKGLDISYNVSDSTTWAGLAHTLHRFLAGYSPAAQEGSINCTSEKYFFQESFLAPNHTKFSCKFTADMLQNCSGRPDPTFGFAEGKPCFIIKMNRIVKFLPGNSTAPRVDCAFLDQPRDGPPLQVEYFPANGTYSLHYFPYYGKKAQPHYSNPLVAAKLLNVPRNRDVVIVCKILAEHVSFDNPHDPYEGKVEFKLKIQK

| IC50 [nM] | Structure (SMILES) |
| --- | --- |
| 55 | Cc1nc2c(NC3CCOc4cc(F)cc(F)c43)cc(C(=O)N3CCOCC3)cn2c1CO (racemic) [Example 8-1] |
| 40 | Cc1nc2c(NC3CCOc4cc(F)cc(F)c43)cc(C(=O)N3CCOCC3)cn2c1CO (single isomer, unassigned; (+)) [Example 8-2, (+)-[8-[(5,7-Difluoro-3,4-dihydro-2H-chromen-4-yl)amino]-2-methyl-6-(morpholin-4-ylcarbonyl)imidazo[1,2-a]pyridin-3-yl]methanol] |
| 30 | Cc1nc2c(NC3CCOc4cccc(F)c43)cc(C(=O)N(C)C)cn2c1CO (single isomer, unassigned; (+)) [Example 4-3, (+)-8-[(5-Fluoro-3,4-dihydro-2H-chromen-4yl)-amino]-3-(hydroxymethyl)-N,N,2-trimethylimidazo [1,2-a]pyridine-6-carboxamide] |
| 37 | Cc1nc2c(NC3CCOc4cc(F)cc(F)c43)cc(C(=O)N(C)C)cn2c1CO (single isomer, unassigned) [Example 3-2] |
| 67 | Cc1nc2c(NC3CCOc4ccccc43)cc(C(=O)N(C)C)cn2c1CO (single isomer, unassigned; (-)) [Example 2-3] |
| 61 | Cc1cccc2c1C(Nc1cc(C(=O)N3CCOCC3)cn3c(CO)c(C)nc13)CCO2 (single isomer, unassigned; (+)) [Example 6-3, (+)-[2-Methyl-8-[(5-methyl-3,4-dihydro-2H-chromen-4-yl)amino]-6-(morpholin-4-ylcarbonyl)imidazo[1,2-a]pyridin-3-yl]methanol] |
| 47 | Cc1nc2c(NC3CCOc4cccc(F)c43)cc(C(=O)N3CCOCC3)cn2c1CO (racemic) [Example 9-1, [8-[(5-Fluoro-3,4-dihydro-2H-chromen-4-yl)amino]-2-methyl-6-(morpholin-4-ylcarbonyl)imidazo[1,2-a]pyridin-3-yl]methanol] |
| 43 | Cc1cccc2c1C(Nc1cc(C(=O)N3CCOCC3)cn3c(CO)c(C)nc13)CCO2 (single isomer, unassigned; (-)) [Example 6-2] |
| 72 | Cc1nc2c(NC3CCOc4cccc(F)c43)cc(C(=O)N3CCOCC3)cn2c1CO (single isomer, unassigned; (+)) [Example 9-2] |
| 140 | Cc1nc2c(NC3CCOc4ccccc43)cc(C(=O)N3CCOCC3)cn2c1CO (racemic) [Example 7-1, [8-(3,4-Dihydro-2H-chromen-4-ylamino)_-2-methyl-6-(morpholin-4-ylcarbonyl)imidazo[1,2-a]pyridin-3-yl]methanol] |
| 110 | Cc1nc2c(NC3CCOc4ccccc43)cc(C(=O)N3CCOCC3)cn2c1CO (single isomer, unassigned; (+)) [Example 7-3, (+)-[8-(3,4-Dihydro-2H-chromen-4-ylamino)-2-methyl-6-(morpholin-4-ylcarbonyl)imidazo[1,2-a]pyridin-3-yl]methanol] |
| 96 | Cc1nc2c(NC3CCOc4ccccc43)cc(C(=O)N3CCOCC3)cn2c1CO (single isomer, unassigned; (-)) [Example 7-2, (−)-[f8-(3,4-Dihydro-2H-chromen-4-ylamino)-2-methyl-6-(morpholin-4-ylcarbonyl)imidazo[1,2-a]pyridin-3-yl]methanol] |
| 75 | Cc1nc2c(NC3CCOc4ccccc43)cc(C(=O)N(C)C)cn2c1CO (racemic) [Example 2-1, 8-(3,4-Dihydro-2H-chromen-4-ylamino)-3-(hydroxymethyl)-N,N,2-trimethylimidazo[1,2a]pyridine-6-carboxamide] |
| 89 | Cc1cccc2c1C(Nc1cc(C(=O)N(C)C)cn3c(CO)c(C)nc13)CCO2 (single isomer, unassigned) [Example 1-3] |
| 41 | Cc1nc2c(NC3CCOc4cc(F)cc(F)c43)cc(C(=O)N(C)C)cn2c1CO (single isomer, unassigned) [Example 3-3] |
| 84 | Cc1cccc2c1[C@@H](Nc1cc(C(=O)N(C)C)cn3c(CO)c(C)nc13)CCO2 (single isomer, unassigned) [Example 1-2] |
| 61 | Cc1nc2c(NC3CCOc4ccccc43)cc(C(=O)N(C)C)cn2c1CO (single isomer, unassigned; (+)) [Example 2-2, (+)-8-(3,4-Dihydro-2H-chromen-4-ylamino)-3-(hydroxymethyl)-N,N,2-trimethylimidazo[1,2-a]pyridine-6-car boxamide] |
| 29 | Cc1nc2c(NC3CCOc4cccc(F)c43)cc(C(=O)N(C)C)cn2c1CO (single isomer, unassigned; (-)) [Example 4-2, (−)-8-[(5-Fluoro-3,4-dihydro-2H-chromen-4-yl)amino]-3-(hydroxymethyl)-N,N,2-trimethylimidazo [1,2a]pyridine-6-carboxamide] |
| 61 | Cc1nc2c(NC3CCOc4cccc(F)c43)cc(C(=O)N3CCOCC3)cn2c1CO (single isomer, unassigned; (-)) [Example 9-3] |
| 52 | Cc1nc2c(NC3CCOc4cc(F)cc(F)c43)cc(C(=O)N3CCOCC3)cn2c1CO (single isomer, unassigned; (-)) [Example 8-3, (−)-[8-[5,7-Difluoro-3,4-dihydro-2H-chromen-4-yl)amino]-2-methyl-6-(morpholin-4-ylcarbonyl)imidazo[1,2-a]pyridin-3-ylmethanol] |
